# Measured values taken from ChEMBL document CHEMBL1128625, “Synthesis and antibacterial activity of cephalosporins having C-3 catechol-containing (pyridinium-4-thio)-methyl groups” (1995).
# Columns and labels:
# [1] = system: Pseudomonas aeruginosa; assay: In vitro antibacterial activity against Pseudomonas aeruginosa ATCC 10145 bacteria; format: functional
# [2] = system: Staphylococcus aureus; assay: In vitro antibacterial activity against Staphylococcus aureus FDA 209P bacteria; format: functional
# [3] = system: Pseudomonas aeruginosa; assay: In vitro antibacterial activity against Pseudomonas aeruginosa NCTC-10490 bacteria; format: functional
# [4] = system: Escherichia coli; assay: In vitro antibacterial activity against Escherichia coli NIHJ JC-2 bacteria; format: functional
# [5] = system: Mus musculus; assay: In vivo therapeutic efficacy against systemic infections in mice using Pseudomonas aeruginosa E-2 as a test organism; format: functional
# [6] = system: Pseudomonas aeruginosa; assay: In vivo therapeutic efficacy against systemic infections in mice using Pseudomonas aeruginosa E-2 as a test organism
# [7] = species on record: Mus musculus; assay: Challenged dose in mouse infected with Pseudomonas aeruginosa E-2; format: functional
# [8] = system: Mus musculus; assay: In vivo therapeutic efficacy against systemic infections in mice using Pseudomonas aeruginosa E-2 as a test organism.; format: functional
SMILES,MIC [1],MIC [2],MIC [3],MIC [4],ED50 [5],MIC [6],Challenge dose [7],ED50 [8],MIC [8]
CC(C)(O/N=C(\C(=O)N[C@@H]1C(=O)N2C(C(=O)[O-])=C(CSc3cc[n+](Cc4cc(O)c(O)cn4)cc3)CS[C@H]12)c1csc(N)n1)C(=O)O,0.39 µg/mL,6.25 µg/mL,0.05 µg/mL,0.78 µg/mL,,,,,
CC(C)(O/N=C(\C(=O)N[C@@H]1C(=O)N2C(C(=O)[O-])=C(CSc3cc[n+](CC(=O)c4ccc(O)c(O)c4)cc3)CS[C@H]12)c1csc(N)n1)C(=O)O,0.05 µg/mL,3.13 µg/mL,≤ 0.025 µg/mL,0.1 µg/mL,,,,,
Nc1nc(/C(=N/OCC(=O)O)C(=O)N[C@@H]2C(=O)N3C(C(=O)[O-])=C(CSc4cc[n+](CC(=O)c5ccc(O)c(O)c5)cc4)CS[C@H]23)cs1,0.1 µg/mL,3.13 µg/mL,≤ 0.025 µg/mL,0.05 µg/mL,> 20 mg/kg,0.1 µg/mL,1000000 cells mouse-1,,
CO/N=C(\C(=O)N[C@@H]1C(=O)N2C(C(=O)[O-])=C(CSc3cc[n+](CC(=O)c4ccc(O)c(O)c4)cc3)CS[C@H]12)c1csc(N)n1,0.39 µg/mL,0.78 µg/mL,0.05 µg/mL,0.1 µg/mL,,,,,
CC(C)(O/N=C(\C(=O)N[C@@H]1C(=O)N2C(C(=O)[O-])=C(C[n+]3ccccc3)CS[C@H]12)c1csc(N)n1)C(=O)O [CEFTAZIDIME],1.56 µg/mL,3.13 µg/mL,0.78 µg/mL,0.39 µg/mL,,,1000000 cells mouse-1,34.4 mg/kg,1.56 µg/mL
